For 15 molecules, IC50 and Activity results are on record in ChEMBL document CHEMBL4699608, “Aliphatic amines are viable pro-drug moieties in phosphonoamidate drugs” (Bioorg Med Chem Lett, 2020).

One may read the IC50 as the concentration that gives 50% inhibition.

The test system of assay [1] is D-423MG. The assay can be described thus: Cytotoxicity against human D423 cells with ENO1 deficient assessed as reduction in cell viability incubated for 5 days by crystal violet staining based spectrophotometry. The class given is functional. Particulars: 120 h.
In assay [2] the test system is D-423MG. The assay can be described thus: Cytotoxicity against human D423 cells with PAPSS1 deficient. The class given is functional, cell-based.
The test system of assay [3] is D-423MG. The assay can be described thus: Cytotoxicity against human D423 cells with HINT1 deficient. It counts as functional, cell-based.
Assay [4] relates to D-423MG. In words: Cytotoxicity against human D423 cells with CES2 deficient. It counts as functional, cell-based.

The source made the active and inactive calls. The rule behind the calls is not given here.

Consider `CC(C)(C)C(=O)OCOP(=O)(NCc1ccc(F)cc1F)C1CCCN(O)C1=O` (configuration not stated), for which, in the assay on D-423MG [1], the IC50 was found to be 80.3 nM. Consider `CC(C)(C)C(=O)OCOP(=O)(NCc1ccccc1F)C1CCCN(O)C1=O` (configuration not stated), for which the half-maximal inhibitory concentration (IC50) in the assay with D-423MG [1] was determined as 196 nM. In the case of `CC(C)(C)C(=O)OCOP(=O)(NCc1cccc(F)c1)C1CCCN(O)C1=O` (configuration not stated), in the assay on D-423MG [1], the IC50 turned out to be 103 nM. On to `CC(C)(C)C(=O)OCOP(=O)(NCC1CCCCC1)C1CCCN(O)C1=O` (configuration not stated), for which, in the assay with D-423MG [1], the IC50 worked out at 81.1 nM. `CCCCCCCCCCCCNP(=O)(O)C1CCCN(O)C1=O` (configuration not stated): in the assay on D-423MG [1], the concentration for half-maximal inhibition (IC50) was 24 nM.

`CNP(=O)(OCOC(=O)C(C)(C)C)C1CCCN(O)C1=O` (configuration not stated): the IC50 in the assay with D-423MG [1] amounted to 115 nM. On the same count and under the same terms, then `CC(C)(C)C(=O)OCOP(=O)(NC1CCC1)C1CCCN(O)C1=O` (configuration not stated), with 121 nM; and `O=C1C(P(=O)(O)NCC2CC2)CCCN1O` (configuration not stated), with 8830 nM; and `CC(C)(C)C(=O)OCOP(N)(=O)C1CCCN(O)C1=O` (configuration not stated), with 62.6 nM. For the molecule `CC(C)(C)C(=O)OCOP(=O)(NCC1CC1)C1CCCN(O)C1=O` (configuration not stated), the result in the assay with D-423MG [2], in the assay on D-423MG [3] and in the assay on D-423MG [4] was Active. With `CC(C)(C)C(=O)OCOP(=O)(NCc1ccc(F)c(F)c1)C1CCCN(O)C1=O` (configuration not stated), the IC50 in the assay with D-423MG [1] is 84.6 nM.

Turning to `CC(C)(C)C(=O)OCOP(=O)(NCc1ccccc1)C1CCCN(O)C1=O` (configuration not stated), the concentration for half-maximal inhibition (IC50) in the assay with D-423MG [1] is 244 nM. Still for that read-out and setting: then `CC(C)(C)C(=O)OCOP(=O)(NCc1ccc(F)cc1)C1CCCN(O)C1=O` (configuration not stated), with 129 nM; and `CC(C)(C)C(=O)OCOP(=O)(OCOC(=O)C(C)(C)C)C1CCCN(O)C1=O` (configuration not stated), with 17.3 nM.

For `CC(C)OC(=O)C(C)NP(=O)(OCOC(=O)C(C)(C)C)C1CCCN(O)C1=O` (configuration not stated), in the assay on D-423MG [1], the IC50 was found to be 258 nM.
